In paper PMC3292429 (Channels, 2009):
“Also recorded” adds a separate entry of the source.

What was measured:
BK channel [1] = conditions: result in words, cited from earlier work
IK1 channel = conditions: cited from earlier work; for mechanism of IK1 current increase: result in words
[2] = tested on: BK channel (large conductance Ca^2+-activated K channel, KCa1.1) in parotid acinar cells; assay: Whole-cell patch clamp: IK1-induced inhibition of BK current; format: cell-based, mouse
[3] = tested on: IK1 (intermediate conductance Ca^2+-activated K channel, KCa3.1); assay: Whole-cell patch clamp: IK1 current; format: cell-based, mouse; conditions: 10 μM DCEBIO, +50 mV, 80 nM free Ca^2+; result in words
BK channel [4] = target: BK channel (Mus musculus, UniProt Q08460); conditions: result in words; cited from earlier work
Sequence of BK channel (Mus musculus, UniProt Q08460) (Q08460 whole entry): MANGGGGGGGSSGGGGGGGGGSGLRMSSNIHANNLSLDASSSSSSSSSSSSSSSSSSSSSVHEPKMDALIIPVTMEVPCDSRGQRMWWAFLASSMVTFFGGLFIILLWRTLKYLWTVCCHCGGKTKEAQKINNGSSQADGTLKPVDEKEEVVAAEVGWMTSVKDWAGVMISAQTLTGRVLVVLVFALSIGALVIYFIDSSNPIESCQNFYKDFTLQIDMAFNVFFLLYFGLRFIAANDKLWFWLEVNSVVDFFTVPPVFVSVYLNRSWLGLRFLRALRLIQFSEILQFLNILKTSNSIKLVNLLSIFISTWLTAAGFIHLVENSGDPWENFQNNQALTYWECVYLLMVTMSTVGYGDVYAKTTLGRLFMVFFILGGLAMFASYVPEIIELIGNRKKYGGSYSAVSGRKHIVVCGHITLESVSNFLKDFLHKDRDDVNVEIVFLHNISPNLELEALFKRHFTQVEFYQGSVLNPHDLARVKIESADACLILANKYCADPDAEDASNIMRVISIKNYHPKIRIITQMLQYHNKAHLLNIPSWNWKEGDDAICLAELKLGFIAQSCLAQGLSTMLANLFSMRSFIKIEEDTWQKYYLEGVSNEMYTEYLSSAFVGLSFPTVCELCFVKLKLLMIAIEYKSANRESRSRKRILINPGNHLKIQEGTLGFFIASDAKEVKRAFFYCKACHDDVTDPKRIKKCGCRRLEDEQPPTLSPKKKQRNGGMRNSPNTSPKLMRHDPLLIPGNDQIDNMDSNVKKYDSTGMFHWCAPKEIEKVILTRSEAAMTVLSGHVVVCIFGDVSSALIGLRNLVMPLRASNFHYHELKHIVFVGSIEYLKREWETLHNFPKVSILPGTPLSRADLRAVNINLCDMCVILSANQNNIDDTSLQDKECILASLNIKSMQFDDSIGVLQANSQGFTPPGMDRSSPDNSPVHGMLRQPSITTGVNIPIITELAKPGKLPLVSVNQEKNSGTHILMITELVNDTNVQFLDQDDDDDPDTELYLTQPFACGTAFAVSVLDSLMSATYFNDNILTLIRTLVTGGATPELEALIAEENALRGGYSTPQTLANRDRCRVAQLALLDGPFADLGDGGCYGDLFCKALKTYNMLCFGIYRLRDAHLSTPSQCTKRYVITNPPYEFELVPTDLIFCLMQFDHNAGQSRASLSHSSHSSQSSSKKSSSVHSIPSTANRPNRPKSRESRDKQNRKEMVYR

[5] = tested on: IK1 (intermediate conductance Ca^2+-activated K channel, KCa3.1); conditions: result in words; cited from earlier work
[6] = stated without own data or reference

CC[N+](CC)(CC)CC [TEA]
effect of internal TEA on BK single channel current level (BK channel [1]; [6]): reduction in the BK single channel current level (as does TEA)
time dependence of open channel block by internal TEA (BK channel [1]; [6]): no apparent time dependence

CCn1c(=O)[nH]c2ccccc21 [1-EBIO, 1-ethyl-2-benzimidazolinone]
share of closed events accounted for by the two closed times together (IK1 channel; channels activated by 1-EBIO): 97%
share of events with closed time 5 msec (IK1 channel; channels activated by 1-EBIO): 31%
share of events with closed time about 1.6 msec (IK1 channel; channels activated by 1-EBIO): 66%
mechanism of IK1 current increase (IK1 channel): increase IK1 current by increasing the channel open probability

CC(C)(O)[C@H]1O[C@H]2CC[C@@]3(C)[C@@](O)(CC[C@H]4Cc5c([nH]c6ccccc56)[C@@]43C)C2=CC1=O [paxilline]
BK channel block by paxilline (BK channel [1]): specific BK channel blocker

CCn1c(=O)[nH]c2cc(Cl)c(Cl)cc21 [DCEBIO, 5,6-Dichloro-1-ethyl-1,3-dihydro-2H-benzimidazol-2-one]
mechanism of IK1 current increase (IK1 channel): increase IK1 current by increasing the channel open probability
reduction of BK current ([2]; 2 μM DCEBIO, pooled from 5 cells, voltage-independent (Fig. 5A)): 50%
recovery of BK current after washout of DCEBIO ([2]; 10 μM DCEBIO, +50 mV, 80 nM free Ca^2+ in pipette, single example (Fig. 1)): 96 % of control
mean recovery of BK current after washout of DCEBIO ([2]; 10 μM DCEBIO, +50 mV, mean ± SEM, 9 experiments): 94 ± 3%
effect on time-dependent BK current ([2]; 10 μM DCEBIO, +50 mV, reversible, result in words): time-dependent BK current was reduced when IK1 channels were activated
inhibition of BK channel current by IK1 activation ([2]; 10 μM DCEBIO, +50 mV, single example (Fig. 2)): 60%
reduction in BK current by IK1 activation, remaining cells ([2]; 10 μM DCEBIO, four of 19 cells, omitted from analysis, result in words): only modest reductions
voltage dependence of IK1-induced BK inhibition ([2]; 10 μM DCEBIO, range of test voltages, result in words): very little voltage dependence; also recorded: relatively little and no consistent voltage dependence
mean block of BK current by IK1 activation ([2]; DCEBIO (10 μM), +50 mV, mean ± SEM, N = 5): 66 ± 6%
activation of IK1 current [3]: activated the time and voltage independent IK1 currents; also recorded: triggered the expected time- and voltage-independent current through these channels
effect on BK channels in cells from IK1 gene-ablated mice (BK channel [4]): no effects on BK channels

Clc1ccccc1C(c1ccccc1)(c1ccccc1)n1cccn1 [TRAM-34]
mean BK level after IK1 block by TRAM-34 ([2]; 1 or 10 μM TRAM-34 in presence of DCEBIO, mean ± SEM, N = 5): 88 ± 3 % of control
IK1 channel inhibition [5]: IK1 inhibitor

C[N+](C)(C)CCCCCCCCCC[N+](C)(C)C [decamethonium]
competition of native β subunit inactivation with cytosolic blockers (BK channel [1]): does not
